Measurements from US20220125837A1, “METHODS FOR CONTROLLED ELIMINATION OF THERAPEUTIC CELLS” (Bellicum Pharmaceuticals, Inc., priority 2014, published 2022).

How the values were obtained:
[1] = tested on: gene-modified allodepleted cells (SFG.iCasp9.2A.CD19); assay: Induction of apoptosis with AP20187 in gene-modified allodepleted cells (annexin V/7-AAD); assay type: cell-based, human
Experimental: (§1) Suicide gene functionality was assessed by adding a small molecule synthetic homodimerizer, AP20187 (Ariad Pharmaceuticals; Cambridge, Mass.), at 10 nM final concentration the day following CD19 immunomagnetic selection. Cells were stained with annexin V and 7-amino-actinomycin (7-AAD)(BD Pharmingen) at 24 hours and analyzed by flow cytometry. Cells negative for both annexin V and 7-AAD were considered viable, cells that were annexin V positive were apoptotic, and cells that were both annexin V and 7-AAD positive were necrotic. The percentage killing induced by dimerization was corrected for baseline viability as follows: Percentage killing=100%−(% Viability in AP20187-treated cells÷% Viability in non-treated cells).
(§2) The day following immunomagnetic selection, 10 nM of the chemical inducer of dimerization, AP20187, was added to induce apoptosis, which appeared within 24 hours.

non-transduced cells = assay: Viability of non-transduced cells with AP20187; assay type: cell-based, human; conditions: n=6
Experimental: as §1, §2

iCasp9-transduced MSCs = assay: Apoptosis of iCasp9-ΔCD19 transduced undifferentiated MSCs after CID (annexin V/7-AAD)
[2] = tested on: F-Casp9M.I.GFPhigh-transduced T cells; assay: Annexin V/7-AAD staining of iCasp9M GFPhigh T cells after CID; assay type: cell-based, human
Experimental: CID (AP20187; ARIAD Pharmaceuticals) at indicated concentrations was added to transfected 293T cells or transduced CTLs. Adherent and nonadherent cells were harvested and washed with annexin binding buffer (BD Pharmingen, San Jose, Calif.). Cells were stained with annexin-V and 7-amino-actinomycin D (7-AAD) for 15 minutes according to the manufacturer's instructions (BD Pharmingen). Within 1 hour after staining, cells were analyzed by flow cytometry using CellQuest software (Becton Dickinson).
A representative example of 3 separate experiments is shown.
For clinical applications therefore, versions of the expression constructs with selectable markers that allow selection for high copy number, high levels of expression, or both high copy number and high levels of expression may be desirable. […] The dose response remained unchanged for at least 4 weeks after transduction.

Jurkat cells = assay: CID-induced apoptosis (annexin V) in transduced Jurkat cells; assay type: cell-based, human; conditions: 10 nM CID for 8 hours
iFas-transduced CTLs = assay: CID-induced elimination of GFP+ iFas-transduced EBV-CTLs; assay type: cell-based, human; conditions: GFPhigh, 1:1 with nontransduced, 10 nM CID, day 7
Text: Caspase-9 was selected as an inducible proapoptotic molecule for clinical use rather than previously presented iFas and iFADD, because Caspase-9 acts relatively late in apoptosis signaling and therefore is expected to be less susceptible to inhibition by apoptosis inhibitors. Thus, suicide function should be preserved not only in malignant, transformed T-cell lines that express antiapoptotic molecules, but also in subpopulations of normal T cells that express elevated antiapoptotic molecules as part of the process to ensure long-term preservation of memory cells. To further investigate the hypothesis, the function of iCasp9M and iFas was first compared in EBV-CTLs. To eliminate any potential vector based difference, inducible Fas also was expressed in the MSCV.IRES.GFP vector, like iCasp9. […]
Elimination of GFP^+ cells after administration of 10 nM CID was more rapid and more efficient in iCasp9M than in iFas-transduced CTLs (99.2%+/−0.14% of iCasp9M-transduced cells compared with 89.3%+/−4.9% of iFas-transduced cells at day 7 after CID; P<0.05). On the day of LCL stimulation, 10 nM CID was administered, and GFP was measured at the time points indicated to determine the response to CID. […]

MT-2 cells = assay: CID-induced apoptosis (annexin V) in transduced MT-2 cells; assay type: cell-based, human; conditions: 10 nM CID for 8 hours
[3] = tested on: iCasp9M-transduced EBV-CTLs; assay: CID-induced elimination of GFP+ iCasp9M-transduced EBV-CTLs (flow cytometry); assay type: cell-based, human
[4] = large-scale CD19 selection (n=3)
[5] = T cells selected for high expression, overnight 10 nM CID, mean
[6] = representative example of 3 experiments

SMILES: CC[C@H](C(=O)N1CCCC[C@H]1C(=O)O[C@H](CCc1ccc(OC)c(OC)c1)c1cccc(OCC(=O)NCC(CNC(=O)COc2cccc([C@@H](CCc3ccc(OC)c(OC)c3)OC(=O)[C@@H]3CCCCN3C(=O)[C@@H](CC)c3cc(OC)c(OC)c(OC)c3)c2)CN(C)C)c1)c1cc(OC)c(OC)c(OC)c1 [AP20187]
- Killing efficiency after correction for baseline viability ([1]; 10 nM, 24 hours): about 92.9%±3.8%
- AP20187-treated cells remaining viable ([1]; 10 nM, 24 hours, day following CD19 selection): about 5.5%±2.5%
- apoptosis after treatment with dimerizer ([1]; iCasp9 donor T cells): > 90%
- mean viability with AP20187 [1, 4]: about 3.9%
- percentage killing [1, 4]: about 95.4%
- mean viability with AP20187 ([1]; small-scale selection (n=5)): about 6.6%
- percentage killing ([1]; small-scale selection (n=5)): about 91.4%
- viability of non-transduced cells with AP20187 (non-transduced cells): about 86%±9%
- apoptosis index of iCasp9-negative cells (iCasp9-transduced MSCs; 50 nM CID, 24 hrs): 20±7%
- annexin positive, negative population (iCasp neg/CID) (iCasp9-transduced MSCs; 50 nM CID, representative FACS): 19%
- annexin positive, non-transduced control MSC (Control/CID) (iCasp9-transduced MSCs; 50 nM CID, representative FACS): 15%
- apoptotic death of iCasp9-positive cells (iCasp9-transduced MSCs; 50 nM CID, within 24 hrs): 93±1%
- immunoselected iCasp9-CD19-positive cells apoptotic after CID (iCasp9-transduced MSCs; magnetic immunoselection): More than 95%
- apoptotic (annexin-V+/7-AAD−) phenotype [2, 5]: 64%
- necrotic (annexinV+/7-AAD+) phenotype [2, 5]: 30%
- apoptotic phenotype (annexin V+, 7-AAD−) [2, 6]: 64%
- necrotic phenotype (annexin V+, 7-AAD+) [2, 6]: 32%
- apoptosis (annexin-V staining) (Jurkat cells; iCasp9M-transduced Jurkat): 57.2%+/−18.9%
- apoptosis (annexin-V staining) (Jurkat cells; iFas-transduced Jurkat): 56.4%+/−15.6%
- Elimination of GFP+ cells (iFas-transduced CTLs): 89.3%+/−4.9%
- apoptosis (annexin-V staining) (MT-2 cells; iCasp9M-transduced MT-2): 57.9%+/−11.9%
- apoptosis (annexin-V staining) (MT-2 cells; iFas-transduced MT-2): 19.3%+/−8.4%
- reduction in mean fluorescence intensity of GFP after CID ([3]; CTLs that survived CID treatment): 70%
- CID sufficient to obtain the maximal deletion effect ([3]; F-Casp9M.I.GFPhigh, survival of GFP+ cells on day 7): 1 nM
- Elimination of GFP+ cells ([3]; iCasp9M-transduced CTLs, GFPhigh, 1:1 with nontransduced, 10 nM CID, day 7): 99.2%+/−0.14%
- GFP+ cells eliminated ([3]; single 10-nM dose of CID, unselected iCasp9M CTLs, 5 donors): 91.3%
